In patent publication US20170349593A1, “BTK INHIBITORS” (MERCK SHARP & DOHME CORP., priority 2014, published 2017):

What was measured:
[1] = tested on: adenosine uptake into HeLa cells; assay: [3H]Adenosine uptake assay; type: cell-based; settings: Homo sapiens; accumulation of [3H]adenosine into HeLa cells; concentration range 10 μM to 0.032 nM; read-out: ADU inhibition IC50
Experimental: Compounds are also screened in an adenosine uptake functional cellular assay using the protocol described below:
Adenosine uptake activity was determined by monitoring the accumulation of tritiated adenosine into HeLa cells (ATCC catalog #CCL-2) using a PMT-based radiometric detection instrument. In this assay, the potency (IC50) of each compound was determined from a ten point (1:3 serial dilution; final compound concentration range in assay from 10 μM to 0.032 nM) titration curve using the following outlined procedure. To each well of a 96-well CytoStar-T scintillating microplate (Perkin Elmer Catalog #RPNQ0163), 25 000 HeLa cells in 100 μL of growth medium comprising: Minimum Essential Media (Life Technologies Catalog #11095-080)+10% (v/v) foetal bovine serum (FBS; Sigma Aldrich Catalog #F2442) was added. These cells were incubated overnight at 37° C. in a humidified atmosphere with 5% (v/v) CO2. After this time the growth medium was removed and replaced with 40 μL assay medium comprising: Hanks balanced salts solution (HBSS; Thermo Fisher Catalog # SH30268.01)+5% (v/v) FBS. Compound stock solutions in DMSO were diluted in assay medium to 2.5× final compound concentration maintaining a constant DMSO concentration of 0.25% (v/v). 40 μL of compound in assay medium was dispensed into individual wells of the Cytostar-T plates and the plates were incubated for 30 minutes under ambient laboratory conditions. Following this incubation, 20 μL of 500 nM [^3H] adenosine (American Radiolabeled Chemicals Inc. Catalog #ART0287) in assay medium was added and incubated for a further 60 minutes under ambient laboratory conditions. The amount of radiolabel accumulation was then determined using a Perkin Elmer Topcount NXT microplate reader. In brief, HeLa cells adhere to the bottom of the Cytostar-T plate, uptake of [^3H]adenosine into these cells brings the radiolabel into sufficient proximity to excite the scintillant in the base of the plates. These events are captured by single PMT, time-resolved coincidence counting. IC50 values were determined by 4 parameter robust fit of counts per second values vs. (Log10)) compound concentrations.

[2] = target: T1, BTK enzyme (recombinant full-length BTK, hBTK) (Homo sapiens, UniProt Q06187); assay: Btk enzyme activity assay (LANCE TR-FRET); type: biochemical; settings: 50 pM hBTK, 25 μM ATP, 60 minute compound and enzyme incubation, concentration range 1 μM to 0.017 nM, read-out: BTK binding IC50
T1 construct: recombinant protein from baculovirus-transfected S 19 cells: full-length BTK, 6 HIS-tag cleaved; 6 HIS-tag (cleaved yes); made in house
T1 sequence (Q06187 whole entry): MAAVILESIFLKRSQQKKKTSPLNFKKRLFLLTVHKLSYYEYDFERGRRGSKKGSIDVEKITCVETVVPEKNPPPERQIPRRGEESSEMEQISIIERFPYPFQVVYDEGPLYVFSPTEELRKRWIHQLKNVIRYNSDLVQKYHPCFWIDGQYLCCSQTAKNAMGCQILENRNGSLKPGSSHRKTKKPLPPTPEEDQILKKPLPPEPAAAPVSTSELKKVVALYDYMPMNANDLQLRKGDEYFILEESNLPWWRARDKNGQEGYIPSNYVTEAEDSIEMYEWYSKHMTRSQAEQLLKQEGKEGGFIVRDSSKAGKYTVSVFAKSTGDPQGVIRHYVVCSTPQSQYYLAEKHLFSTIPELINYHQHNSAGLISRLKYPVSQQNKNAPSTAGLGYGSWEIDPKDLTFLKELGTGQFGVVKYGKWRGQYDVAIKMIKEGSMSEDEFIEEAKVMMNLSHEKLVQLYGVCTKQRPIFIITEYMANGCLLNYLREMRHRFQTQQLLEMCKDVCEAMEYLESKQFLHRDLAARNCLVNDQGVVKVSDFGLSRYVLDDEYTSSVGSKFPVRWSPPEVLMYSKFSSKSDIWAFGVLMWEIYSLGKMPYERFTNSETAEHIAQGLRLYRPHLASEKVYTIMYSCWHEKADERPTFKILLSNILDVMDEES

Structure (SMILES)	IC50 [1] [µM]	IC50 [2] [µM]
CCOc1cc(C(=O)Nc2cc(C(F)(F)F)ccn2)ccc1-c1nc([C@@H]2CC[C@H](C(F)(F)F)N(C(=O)C3CC3)C2)n2ccnc(N)c12 [Example 1, 4-{8-amino-3-[(3R,6R)-1-(cyclopropylcarbonyl)-6-(trifluoromethyl)piperidin-3-yl]imidazo[1,5-a]pyrazin-1-yl}-3-ethoxy-N-[4-(trifluoromethyl)pyridin-2-yl]benzamide]	0.918	0.347
CCOc1cc(C(=O)Nc2cc(C(F)(F)F)ccn2)ccc1-c1nc([C@H]2CC[C@@H](C(F)(F)F)N(C(=O)C3CC3)C2)n2ccnc(N)c12 [Example 3, 4-{8-amino-3-[(3S,6S)-1-(cyclopropylcarbonyl)-6-(trifluoromethyl)piperidin-3-yl]imidazo[1,5-a]pyrazin-1-yl}-3-ethoxy-N-[4-(trifluoromethyl)pyridin-2-yl]benzamide]	0.859	1
CCOc1cc(C(=O)Nc2cc(C(F)(F)F)ccn2)ccc1-c1nc([C@@H]2CC[C@@H](C(F)(F)F)N(C(=O)C3CC3)C2)n2ccnc(N)c12 [Example 4, 4-{8-amino-3-[(3R,6S)-1-(cyclopropylcarbonyl)-6-(trifluoromethyl)piperidin-3-yl]imidazo[1,5-a]pyrazin-1-yl}-3-ethoxy-N-[4-(trifluoromethyl)pyridin-2-yl]benzamide]	1.06	0.0394
C[C@H](O)C(=O)N1C[C@H](c2nc(-c3ccc(C(=O)Nc4cc(C(F)(F)F)ccn4)cc3F)c3c(N)nccn23)OC[C@H]1CO [Example 59, 4-(8-amino-3-{(2R,5R)-5-(hydroxymethyl)-4-[(2S)-2-hydroxypropanoyl]morpholin-2-yl}imidazo[1,5-a]pyrazin-1-yl)-3-fluoro-N-[4-(trifluoromethyl)pyridin-2-yl]benzamide]	–	0.0122
C[C@H]1CO[C@@H](c2nc(-c3ccc(C(=O)Nc4cc(C(F)(F)F)ccn4)cc3F)c3c(N)nccn23)CN1C(=O)C1CC1 [Example 86, 4-{8-amino-3-[(2R,5S)-4-(cyclopropylcarbonyl)-5-methylmorpholin-2-yl]imidazo[1,5-a]pyrazin-1-yl}-3-fluoro-N-[4-(trifluoromethyl)pyridin-2-yl]benzamide]	0.246	–
CNC(=O)N1C[C@H](c2nc(-c3ccc(C(=O)Nc4cc(C(F)(F)F)ccn4)c(F)c3)c3c(N)nccn23)CC[C@@H]1C [Example 94, (2S,5R)-5-[8-amino-1-(3-fluoro-4-{[4-(trifluoromethyl)pyridin-2-yl]carbamoyl}phenyl)imidazo[1,5-a]pyrazin-3-yl]-N,2-dimethylpiperidine-1-carboxamide]	–	0.000374

Continued by falling IC50 [2], values first:

IC50 [1] [µM]	IC50 [2] [µM]	Structure (SMILES)
–	0.00881	COCC(=O)N1C[C@H](c2nc(-c3ccc(C(=O)Nc4cc(C(F)(F)F)ccn4)cc3F)c3c(N)nccn23)OC[C@H]1CO [Example 56, 4-{8-amino-3-[(2R,5R)-5-(hydroxymethyl)-4-(methoxyacetyl)morpholin-2-yl]imidazo[1,5-a]pyrazin-1-yl}-3-fluoro-N-[4-(trifluoromethyl)pyridin-2-yl]benzamide]
–	0.00692	CS(=O)(=O)CC(=O)N1C[C@H](c2nc(-c3ccc(C(=O)Nc4cc(C(F)(F)F)ccn4)cc3F)c3c(N)nccn23)OC[C@H]1CO [Example 58, 4-(8-amino-3-{(2R,5R)-5-(hydroxymethyl)-4-[(methylsulfonyl)acetyl]morpholin-2-yl}imidazo[1,5-a]pyrazin-1-yl)-3-fluoro-N-[4-(trifluoromethyl)pyridin-2-yl]benzamide]
0.918	0.00138	CCOc1cc(C(=O)Nc2cc(C(F)(F)F)ccn2)ccc1-c1nc([C@H]2CC[C@H](C(F)(F)F)N(C(=O)C3CC3)C2)n2ccnc(N)c12 [Example 2, 4-{8-amino-3-[(3S,6R)-1-(cyclopropylcarbonyl)-6-(trifluoromethyl)piperidin-3-yl]imidazo[1,5-a]pyrazin-1-yl}-3-ethoxy-N-[4-(trifluoromethyl)pyridin-2-yl]benzamide]
